Reference: publication PMC8621208, “Antiseptic 9-Meric Peptide with Potency against Carbapenem-Resistant Acinetobacter baumannii Infection” (International Journal of Molecular Sciences, 2021)
≈ marks a conversion by molar mass, not a printed value. Where two headings read alike, the source gives them in different places. Where a SMILES comes first, the peptide text is derived from it. Where no end group is shown, it is not given here. [ ]: non-standard residue; d: D form.

Tests used:
[1] = tested on: CRAB C8; test: microbe, parasite or virus in culture; settings: CRAB C8
Text: (§1) Escherichia coli KCTC 1682 was obtained from the Korean Collection for Type Cultures (KCTC) (Jeongeup-si, Korea), Acinetobacter baumannii KCCM 40203, Pseudomonas aeruginosa KCCM 11328 from the Korea Culture Center of Microorganisms (KCCM) (Seoul, Korea). Klebsiella pneumoniae NCCP 16054 were obtained from the National Culture Collection for Pathogens (NCCP) (Osong, Korea). Additionally, two carbapenem-resistant E. coli (CREC E1 and E2), 11 carbapenem-resistant A. baumannii (CRAB C0–C10) and two carbapenem-resistant K. pneumoniae (CRKP K1 and K2) were isolated from the patients, who presented symptoms and signs of infection at Korea University Anam Hospital (Seoul, Korea) (IRB registration no. 2020AN0157, 4 March 2021). CRAB C0–C10 have the OXA-23 gene with carbapenem-resistance.
(§2) The minimum inhibitory concentrations (MIC) were determined using broth dilution method. Briefly, all the mentioned bacterial strains were grown overnight at 37 °C by Muller–Hinton (MH) media. […] After 16 h incubation, the bacterial growth was read at 600 nm using a SpectraMAX microplate reader (Molecular Devices, San Jose, CA, USA).

[2] = tested on: K. pneumoniae; test: microbe, parasite or virus in culture; settings: 16 h
Text: as §1, §2

[3] = tested on: CRAB C1; test: microbe, parasite or virus in culture; settings: CRAB C1
Text: as §1, §2

[4] = tested on: CRAB C0; type: cell-based, carbapenem-resistant A. baumannii; settings: peptide pre-incubated 6 h at 37 °C
Method: (§3) All the peptides at their MICs were pre-incubated with proteolytic enzymes such as trypsin and α-chymotrypsin (10,000:1; peptide: enzyme ratio) for 6 h at 37 °C. Then, 100 μL of peptide-protease cocktail was added to the 100 µL bacterial suspension (E. coli, A. baumannii and CRAB C0, 2 × 10^5 CFU/mL) and further incubated for 16 h at 37 °C. Bacterial suspension without peptide and protease served as negative control. The analysis was repeated at three times using independent experiments, and the degree of bacterial growth was measured at 600 nm using a microplate reader.

[5] = tested on: CRAB C9; test: MIC, broth dilution; type: cell-based, carbapenem-resistant A. baumannii; settings: read-out: Minimal Inhibitory Concentration (MIC)
Text: as §1, §2

[6] = tested on: CRAB C3; test: MIC, broth dilution; type: cell-based, carbapenem-resistant A. baumannii; settings: read-out: Minimal Inhibitory Concentration (MIC)
Text: as §1, §2

[7] = tested on: CRAB C5; test: MIC, broth dilution; type: cell-based, carbapenem-resistant A. baumannii; settings: read-out: Minimal Inhibitory Concentration (MIC)
Text: as §1, §2

[8] = tested on: CRAB C0; test: MIC, broth dilution; type: cell-based, carbapenem-resistant A. baumannii; settings: read-out: Minimal Inhibitory Concentration (MIC)
Text: as §1, §2

[9] = tested on: CRAB C2; test: MIC, broth dilution; type: cell-based, carbapenem-resistant A. baumannii; settings: read-out: Minimal Inhibitory Concentration (MIC)
Text: as §1, §2

[10] = tested on: CRAB C4; test: MIC, broth dilution; type: cell-based, carbapenem-resistant A. baumannii; settings: read-out: Minimal Inhibitory Concentration (MIC)
Text: as §1, §2

[11] = tested on: CRAB C6; test: MIC, broth dilution; type: cell-based, carbapenem-resistant A. baumannii; settings: read-out: Minimal Inhibitory Concentration (MIC)
Text: as §1, §2

[12] = tested on: CRAB C10; test: MIC, broth dilution; type: cell-based, carbapenem-resistant A. baumannii; settings: read-out: Minimal Inhibitory Concentration (MIC)
Text: as §1, §2

[13] = tested on: CRAB C7; test: MIC, broth dilution; type: cell-based, carbapenem-resistant A. baumannii; settings: read-out: Minimal Inhibitory Concentration (MIC)
Text: as §1, §2

[14] = tested on: A. baumannii; test: MIC, broth dilution; type: cell-based, Acinetobacter baumannii KCCM 40203; settings: 16 h, MH media, read-out: Minimal Inhibitory Concentration (MIC)
Text: as §1, §2

[15] = tested on: P. aeruginosa; test: MIC, broth dilution; type: cell-based, Pseudomonas aeruginosa KCCM 11328; settings: 16 h, MH media, read-out: Minimal Inhibitory Concentration (MIC)
Text: as §1, §2

[16] = tested on: sheep red blood cells (sRBC); test: Hemolytic assay; type: cell-based; settings: 100 μM
Method: The peptide-induced toxicity was determined by hemolytic against Sheep red blood cells (sRBC). Briefly, Fresh sRBC were washed at least three times with phosphate-buffered saline (PBS) and the debris were removed by centrifugation (1000× g for 5 min, 4 °C). All the peptides including melittin control (0.2–100 μM) and positive control (1% (v/v) triton X-100) were incubated with 4% (v/v) sRBC for 1 h at 37 °C followed by centrifugation at 1000× g for 5 min. The supernatant was measured at 405 nm using a microplate reader.

[17] = tested on: human kidney (HK)-2 cells; test: Cytotoxicity, WST-8 assay; type: cell-based; settings: 24 h; for Toxicity in HK-2 cells: up to 100 μM
Method: (§4) Figure 6 In vitro cytotoxicity of Pro9-3 and their analogues. (A) Dose-response curve represent the hemolytic activity of peptides against sheep red blood cell (sRBC). Concentration-dependent (0–100 μM) toxic effects induced by peptides on (B) RAW 264.7 murine macrophage cells and (C) human kidney (HK)-2 cells for 24 h. Melittin was used as a control. Statistical analysis was performed using two-way analysis of variance (ANOVA) with Dunnett’s comparison test. Values are expressed as mean ± SEM of three independent experiments. * p < 0.05, ** p < 0.01, *** p < 0.001, and ns, non-significant compared with the control.
(§5) RAW 264.7 mouse macrophage cells and Human kidney (HK)-2 cells were obtained from Korean cell line bank (Seoul, Korea) and the cells were maintained in DMEM culture media (Thermo Fischer Scientific Inc., Waltham, MA, USA) supplemented with 10% fetal bovine serum, 1% penicillin/streptomycin at 37 °C in a humidified 5% CO2 incubator. The cytotoxicity of the peptides was analyzed using WST-8 cell proliferation assay (Biomax Co, Ltd., Seoul, Korea), and the experiment was performed according to the kit protocol. Briefly, cells (1 × 10^4) were seeded in 96-well plate and the peptides treatment (0–100 μM) were initiated at 80% confluency and then for 24 h. After incubation, WST-8 reagent was added and the change in absorbance was read at 450 nm against reagent blank, and values are expressed as percent cell survival.

[18] = tested on: CRKP K2; test: MIC, broth dilution; type: cell-based, carbapenem-resistant K. pneumoniae; settings: read-out: Minimal Inhibitory Concentration (MIC)
Text: as §1, §2

[19] = tested on: CRKP K1; test: MIC, broth dilution; type: cell-based, carbapenem-resistant K. pneumoniae; settings: read-out: Minimal Inhibitory Concentration (MIC)
Text: as §1, §2

[20] = tested on: E. coli; test: MIC, broth dilution; type: cell-based, Escherichia coli KCTC 1682; settings: E. coli; 16 h, MH media; read-out: Minimal Inhibitory Concentration (MIC)
Text: as §1, §2

[21] = tested on: RAW 264.7 murine macrophage cells; test: Cytotoxicity, WST-8 assay; type: cell-based, mouse; settings: 24 h
Method: as §4, §5

[22] = tested on: CREC E1; test: MIC, broth dilution; type: cell-based, carbapenem-resistant E. coli; settings: read-out: Minimal Inhibitory Concentration (MIC)
Text: as §1, §2

[23] = tested on: CREC E2; test: MIC, broth dilution; type: cell-based, carbapenem-resistant E. coli; settings: read-out: Minimal Inhibitory Concentration (MIC)
Text: as §1, §2

[24] = tested on: A. baumannii; type: cell-based, Acinetobacter baumannii; settings: peptide pre-incubated 6 h at 37 °C
Method: as §3

[25] = tested on: E. coli; type: cell-based, Escherichia coli; settings: peptide pre-incubated 6 h at 37 °C
Method: as §3

[26] = tested on: CRAB C0 outer membrane; test: Outer membrane permeability, NPN uptake; type: cell-based, carbapenem-resistant A. baumannii
Method: The effect of peptides on the disturbance of CRAB C0 outer membrane was analyzed using 1-N-phenylnaphthylamine (NPN, Sigma-Aldrich, St. Louis, MO, USA) uptake assay, as previously described. Briefly, CRAB C0 cell suspensions were mixed with NPN (1 mM) and the background fluorescence was recorded for subtraction (excitation λ = 350 nm, emission λ = 420 nm) using RF-6000PC fluorescent spectrophotometer (Shimadzu Scientific Instruments, Kyoto, Japan). Changes in the NPN fluorescence were recorded after addition of different concentrations of peptides and values are expressed as—fluorescence intensity (A.U.).

Compound	Minimal Inhibitory Concentration (MIC) [1]	Minimal Inhibitory Concentration (MIC) [3]	Minimal Inhibitory Concentration (MIC) ([4]; CRAB C0 + Trypsin)	Minimal Inhibitory Concentration (MIC) ([4]; CRAB C0 + α-Chymotrypsin)	MIC [5]	MIC [6]	MIC [7]	MIC [8]	MIC [9]	MIC [10]	MIC [11]	MIC [12]	MIC [13]	MIC [14]	MIC [15]	Hemolytic activity [16]	MIC [18]	MIC [19]	MIC [20]	MIC [22]	other results
RLWLAIWRR-NH2 [Pro9-3]	16 µM	16 µM	>64 µM	>64 µM	16 µM	16 µM	16 µM	8 µM	16 µM	16 µM	16 µM	16 µM	16 µM	16 µM	64 µM	2.5%	64 µM	64 µM	16 µM	16 µM	Minimal Inhibitory Concentration (MIC) [2]: 64 µM; Toxicity in HK-2 cells [17]: neither R-Pro9-3 nor Pro9-3 (parent) showed toxicity; Toxicity in RAW 264.7 cells ([21]; up to 100 μM): neither R-Pro9-3 nor Pro9-3 (parent) showed toxicity; MIC [23]: 16 µM
RRWIALWLR-NH2 [R-Pro9-3]	32 µM	32 µM	64 µM	64 µM	16 µM	32 µM	32 µM	8 µM	32 µM	32 µM	32 µM	16 µM	32 µM	16 µM	64 µM	3.4%	32 µM	32 µM	16 µM	16 µM	Minimal Inhibitory Concentration (MIC) ([2]; K. pneumoniae, MH media): 32 µM; Minimal Inhibitory Concentration (MIC) ([24]; A. baumannii + Trypsin): >64 µM; Minimal Inhibitory Concentration (MIC) ([24]; A. baumannii + α-Chymotrypsin): >64 µM; Minimal Inhibitory Concentration (MIC) ([25]; E. coli + Trypsin): >64 µM; Minimal Inhibitory Concentration (MIC) ([25]; E. coli + α-Chymotrypsin): 64 µM; Toxicity in HK-2 cells [17]: neither R-Pro9-3 nor Pro9-3 (parent) showed toxicity; Toxicity in RAW 264.7 cells ([21]; up to 100 μM): neither R-Pro9-3 nor Pro9-3 (parent) showed toxicity; MIC [23]: 16 µM
CC[C@@H](C)[C@@H](NC(=O)[C@@H](C)NC(=O)[C@@H](CC(C)C)NC(=O)[C@@H](Cc1c[nH]c2ccccc12)NC(=O)[C@@H](CC(C)C)NC(=O)[C@H](N)CCCNC(=N)N)C(=O)N[C@H](Cc1c[nH]c2ccccc12)C(=O)N[C@H](CCCNC(=N)N)C(=O)N[C@H](CCCNC(=N)N)C(N)=O [Pro9-3D, rlwlaiwrr-NH2] (H-[dR][dL][dW][dL][dA][dI][dW][dR][dR]-NH2)	8 µM	8 µM	4 µM	4 µM	8 µM (≈ 10.1 µg/mL)	8 µM (≈ 10.1 µg/mL)	8 µM (≈ 10.1 µg/mL)	4 µM (≈ 5.07 µg/mL)	8 µM (≈ 10.1 µg/mL)	8 µM (≈ 10.1 µg/mL)	8 µM (≈ 10.1 µg/mL)	8 µM (≈ 10.1 µg/mL)	8 µM (≈ 10.1 µg/mL)	4 µM (≈ 5.07 µg/mL)	8 µM (≈ 10.1 µg/mL)	1.9%	8 µM (≈ 10.1 µg/mL)	16 µM (≈ 20.3 µg/mL)	8 µM (≈ 10.1 µg/mL)	8 µM (≈ 10.1 µg/mL)	Minimal Inhibitory Concentration (MIC) [2]: 8 µM; NPN uptake (outer membrane permeabilization) [26]: greater NPN uptake than their L-form peptides; Toxicity in human kidney (HK)-2 cells ([17]; 100 μM): 22.9%; Toxicity in RAW 264.7 cells ([21]; 100 μM): 44.5%; MIC [23]: 8 µM (≈ 10.1 µg/mL)
